From patent US20060160784A1, “Method for treating neurologic diseases” (priority 2005, published 2006)
“And” between values parts separate entries of the source, which are not always exact repeats. Equal values may be shown once.

Test system: G93A transgenic mice
Assay: Survival of G93A murine ALS model mice treated with MGd from symptom onset
Type: in vivo
Settings: for survival interval (survival data used for plot B), individual animals: one value per mouse, unit days
Excerpt: (§1) Transgenic mice which overexpress the G93A human Cu, Zn superoxide dismutase (SOD 1) mutant develop motor paralysis similar to amyotrophic lateral sclerosis (ALS) in humans. At 90-100 days of age, these mice develop hindlimb weakness which rapidly progresses to total body paralysis within 2-3 weeks. Such trangenic mice were used to evaluate the survival and neuroprotective action of MGd with G93A transgenic mice. In particular, the purpose of this study was to test the effect of MGd (administered at a loading dose of 5 mg/kg and a maintenance dose of 2.5 mg/kg/day i.p. thereafter).
Studies involved the use of G93A overexpressing mice purchased directly from JAX Labs. Due to the high variability in age of onset (of motor neuron disease or MND) and total survival, a mouse colony was bred using the JAX Labs protocols. […] Therefore, littermate males were chosen to sire subsequent offspring and used to produce 10-12 litters of age-matched mice for drug studies. Typically 50-60 transgenic mice were obtained from 10-12 litters and, within these groups, the variability in age of onset and survival was quite low.
(§2) The procedure used involved monitoring the transgenic mice from several litters for onset of symptoms of motor neuron degeneration. At symptom onset (muscle weakness), mice were randomly assigned sequentially to either Control (no treatment) or Treatment (MGd-treated) groups. Mice were sacrificed when moribund (unable to assume upright posture), as required by animal welfare protocol. Motexafin gadolinium formulated at 2 mM (2.3 mg/ml) in 5% aqueous mannitol was used for this study and the study group involved 10-11 animals in each group, 21 animals total.
At the onset of symptoms MGd was administered via i.p injection at a loading dose of 5 mg/kg and a maintenance dose of 2.5 mg/kg/day i.p injection. was administered thereafter.
as §1, with “(SOD1)” for “(SOD 1)”, “a” for “a loading”, “1” for “5 mg/kg and a maintenance dose of 2.5”, “i.p.).” for “i.p. thereafter).”
as §2, with “9” for “10-11”, “18” for “21”
At the onset of symptoms MGd was administered via i.p injection at a dose of 1 mg/kg/day.
as §1, with “a” for “a loading dose of 5 mg/kg and a maintenance”, “mg/kg/q.2d. and 2.5 mg/kg/q.4d. i.p.).” for “mg/kg/day i.p. thereafter).”
as §2, with “Motexafin gadolinium formulated at 2 mM (2.3 mg/ml) in 5% aqueous mannitol was used for this study and the study group involved 10-11 animals in each group, 21 animals total.” left out

CC(=O)[O-].CC(=O)[O-].CCc1c(CC)c2cc3nc(cnc4cc(OCCOCCOCCOC)c(OCCOCCOCCOC)cc4ncc4nc(cc1[n-]2)C(CCCO)=C4C)C(C)=C3CCCO.O.[Gd+3] [MGd, Motexafin Gadolinium]
extension of mean survival over untreated control mice (Example 10, loading dose 5 mg/kg i.p., then 2.5 mg/kg/day i.p.): roughly 2.7 fold | survival interval (survival data used for plot B), individual animals (Example 10, loading dose 5 mg/kg i.p., then 2.5 mg/kg/day i.p. from symptom onset): 53 days and 54 days and 26 days and 23 days and 21 days and 20 days and 46 days and 55 days and 36 days and 32 days | mean survival (Example 10, loading dose 5 mg/kg i.p., then 2.5 mg/kg/day i.p., untreated control 13.4 days, p=4×10^−5): 36.6 days | extension of mean survival over untreated control mice (Example 11, 1 mg/kg/day i.p.): roughly 2.5 fold | survival interval (survival data used for plot B), individual animals (Example 11, 1 mg/kg/day i.p. from symptom onset, 1 mg/kg/day): 48 days and 41 days (2×) and 35 days (2×) and 49 days and 39 days and 52 days and 54 days | mean survival (Example 11, 1 mg/kg/day i.p., untreated control 17.2 days, p<1×10^−5): 43.8 days | extension of survival over untreated control mice (Example 12, 2.5 mg/kg/q.2d. i.p.): roughly 1.3 fold | survival interval (survival data used for plot B), individual animals (Example 12, 2.5 mg/kg/q.2d. i.p. from symptom onset, 2.5 mg/kg): 20 days and 37 days and 35 days and 30 days and 28 days (2×) | mean survival (Example 12, 2.5 mg/kg/q.2d. i.p., untreated control 23 days, p=0.069): 30 days | extension of survival over untreated control mice (Example 12, 2.5 mg/kg/q.4d. i.p.): ~1.4 fold | survival interval (survival data used for plot B), individual animals (Example 12, 2.5 mg/kg/q.4d. i.p. from symptom onset, 2.5 mg/kg): 30 days and 38 days and 20 days and 35 days and 26 days and 47 days | mean survival (Example 12, 2.5 mg/kg/q.4d. i.p., untreated control 23 days, p=0.068): 33 days
